Literature values, collected in publication PMC12308805, “Ultrahigh-Throughput Virtual Screening Strategies against PPI Targets: A Case Study of STAT Inhibitors” (Journal of Chemical Information and Modeling, 2025).
Like-named read-outs stand apart in the source and are kept apart here. Square brackets hold non-standard residues; d marks the D form. Peptide text beside a SMILES is read from it. * marks the point of attachment. pY = N[C@@H](Cc1ccc(OP(=O)(O)O)cc1)C(=O)O; Hydrocinnamoyl = O=C(CCc1ccccc1)*

Tested on: STAT3
Settings: cited from earlier work; for Type: retrospective screening set for STAT3 SH2 domain (PDB 6QHD), ref DUD-E
[1] = sheet 6QHD_actives_decoys, decoys are presumed inactives, not tested
[2] = sheet 6QHD_actives_decoys, decoys generated with DUD-E and presumed inactive, not tested
[3] = sheet 6QHD_actives_decoys, known STAT3 actives of the retrospective screening set, ref ChEMBL / literature

SMILES	Type [2]	further results
Nn1c(SCC(=O)Nc2ccc(S(=O)(=O)Nc3nccs3)cc2)nnc1-c1ccncc1 [Decoy406]		Type (sheet 6QHD_actives_decoys, […]): Inactive (Decoy)
Nc1ncnc2c1ncn2[C@@H]1O[C@H](CO[P@](=O)(O[C@H](CO)[C@@H](O)[C@H](O)[C@@H](O)C=O)OP(=O)(O)O)[C@@H](O)[C@H]1O [Decoy946]		Type [1]: Inactive (Decoy)
COc1cc(NS(=O)(=O)c2ccc(NC(=S)NC(=O)c3cc(Cl)cc(Cl)c3)cc2)ncn1 [Decoy392]		Type (sheet 6QHD_actives_decoys, […]): Inactive (Decoy)
CCOc1ccc([C@@H]2C(C(=O)c3ccc(Cl)cc3)=C(O)C(=O)N2CCCn2ccnc2)cc1OCC [Decoy645]	Inactive (Decoy)	
CCOC(=O)c1c(NC(=O)/C(O)=N/N=C/c2cn(-c3ccccc3)nc2-c2ccc(OC)cc2)sc2c1CCCC2 [Decoy838]		Type [1]: Inactive (Decoy)
O=C(CSc1n[nH]c(N/N=C/c2cc(Cl)ccc2O)n1)NNC(=O)c1ccc(Cl)cc1 [Decoy591]	Inactive (Decoy)	
COc1ccc([N+](=O)[O-])cc1NC(=S)N[C@@H](NC(=O)c1ccco1)C(Cl)(Cl)Cl [Decoy690]	Inactive (Decoy)	
O=c1c(C[C@H](O)CN2CCOCC2)c(O)n(C[C@@H](O)CN2CCOCC2)c(=O)n1C[C@H](O)CN1CCOCC1 [Decoy679]		Type (sheet 6QHD_actives_decoys, […]): Inactive (Decoy)
CC[C@H](C)[C@H](O)C(=O)O[C@H](C(=O)O[C@H](C(=O)OC[C@@H](O)[C@@H](O)[C@@H](O)[C@@H](O)CO)[C@@H](C)CC)[C@@H](C)CC [Decoy860]		Type [1]: Inactive (Decoy)
CC1=C(/C(O)=N/c2ccc(S(N)(=O)=O)cc2)[C@@H](c2ccco2)C(C#N)=C(SCC(=O)Nc2ccc(F)cc2)N1 [Decoy544]	Inactive (Decoy)	
Cc1cc(C)n(Cc2ccc(NC(=S)Nc3ccc(S(=O)(=O)Nc4ncccn4)cc3)cc2)n1 [Decoy696]	Inactive (Decoy)	
C[C@@H](O)CC(=O)SCCNC(=O)CCNC(=O)[C@@H](O)C(C)(C)CO[P@](=O)(O)O[P@](=O)(O)OC[C@H]1O[C@@H](n2cnc3c(N)ncnc32)[C@@H](O)[C@H]1OP(=O)(O)O [Decoy404]		Type (sheet 6QHD_actives_decoys, […]): Inactive (Decoy)
COc1ccc(CCC(=O)O)c([C@H](CC(=O)O)C(=O)O)c1OS(=O)(=O)c1ccc(C)cc1 [Decoy549]	Inactive (Decoy)	
COc1ccc(CCN2C(=O)NC(O)=C3C2=NC(=O)[C@@]3(NS(=O)(=O)c2nnc(NC(C)=O)s2)C(F)(F)F)cc1OC [Decoy687]		Type (sheet 6QHD_actives_decoys, […]): Inactive (Decoy)
NC(=O)CC[C@H](NC(=O)[C@@H]1Cc2cccc3c2N1C(=O)[C@@H](NC(=O)/C=C/c1ccc(OP(=O)(O)O)cc1)CC3)C(=O)O [CHEMBL510008]		Type (known STAT3 active) [3]: Active
CCN(CC)C(=O)c1sc(NC(=O)CCSCCC(=O)Nc2sc(C(=O)N(CC)CC)c(C)c2C(=O)OC)c(C(=O)OC)c1C [Decoy632]	Inactive (Decoy)	
CCCCCCCCCCCCCCCCN(C)S(=O)(=O)c1ccc2sc(NNS(=O)(=O)c3ccc(S(N)(=O)=O)cc3)[n+](C)c2c1 [Decoy748]		Type [1]: Inactive (Decoy)
CC[C@@]1(c2ccccc2)NC(=O)N(CC(=O)NNC(=O)CCN2CCN(c3ccccc3)CC2)C1=O [Decoy766]		Type [1]: Inactive (Decoy)
O=C(O)CCCNC(=O)C(NC(=O)CCSSCCNC(=O)CCCC[C@@H]1SC[C@@H]2NC(=O)N[C@@H]21)C(=O)NCCCC(=O)O [Decoy546]	Inactive (Decoy)	
O=C(O)c1ccccc1Nc1ccc(C(F)(F)F)cc1Nc1ccc(CNCc2c[nH]c(=O)[nH]c2=O)cc1C(=O)O [Decoy840]		Type [1]: Inactive (Decoy)
CCCN(C(=O)c1cccc([N+](=O)[O-])c1)[C@H](C(=O)NCS(=O)(=O)c1ccc(C)cc1)c1ccc(O)cc1 [Decoy565]	Inactive (Decoy)	
COc1cc([C@H]2C(C#N)=C(N)Oc3[nH]nc(-c4cc(OC)c(OC)c(OC)c4)c32)ccc1OC(=O)N1CCOCC1 [Decoy695]		Type (sheet 6QHD_actives_decoys, […]): Inactive (Decoy)
O=C(NCCCCCCNC(=O)N(CCO)[C@H]1CCS(=O)(=O)C1)N(CCO)[C@@H]1CCS(=O)(=O)C1 [Decoy656]	Inactive (Decoy)	
CC(=O)N[C@@H](Cc1ccc(OCC(=O)O)cc1)C(=O)N[C@@H](CC(C)C)C(=O)N1CCC[C@H]1C(=O)N[C@@H](CCC(N)=O)C(=O)N[C@H](C(=O)N[C@H](C(=O)O)C(C)C)[C@@H](C)O [CHEMBL414897]		Type (known STAT3 active) [3]: Active
CC(=O)N[C@@H]1[C@H]([C@H](O)[C@H](O)CO)O[C@@](O[C@H]2[C@@H](O)[C@@H](O[C@@H]([C@@H](O[C@@H]3O[C@@H](C)[C@H](O)[C@H](O)[C@@H]3O)[C@H](O)C=O)[C@H](O)CO)O[C@@H](CO)[C@H]2O)(C(=O)O)C[C@@H]1O [Decoy382]	Inactive (Decoy)	
COc1ccc(C(=O)Nc2ccc(S(=O)(=O)c3ccc(NC(=O)c4ccc(OC)c(OC)c4)cc3)cc2)cc1OC [Decoy665]	Inactive (Decoy)	
COc1ccc(CCNC(=O)CN(c2ccc(F)cc2)S(=O)(=O)c2ccc(OC)c(OC)c2)cc1OC [Decoy713]	Inactive (Decoy)	

SMILES	Type [2]	further results
O[C@@H](CNCCOc1ccccc1OCCNC[C@H](O)COc1cccc2[nH]c3ccccc3c12)COc1cccc2[nH]c3ccccc3c12 [Decoy878]		Type [1]: Inactive (Decoy)
COc1ccc(S(=O)(=O)NNC(=O)CCCCC(=O)NNS(=O)(=O)c2ccc(OC)cc2)cc1 [Decoy571]	Inactive (Decoy)	
COC(=O)c1ccc(NC(=O)CSc2nn3c(SCC(=O)Nc4ccc(C(=O)OC)cc4)nnc3s2)cc1 [Decoy625]	Inactive (Decoy)	
CCCOC(=O)c1ccc(OCC(=O)N/N=C(/S)NC(=O)c2ccccc2[N+](=O)[O-])cc1 [Decoy731]		Type [1]: Inactive (Decoy)
CCOc1cc(N2CCOCC2)c(OCC)cc1NC(=O)c1oc2ccccc2c1CSc1ncn[nH]1 [Decoy600]	Inactive (Decoy)	
CC[C@@H](C)[C@H](O)C(=O)O[C@H](C(=O)O[C@H](C(=O)OC[C@@H](O)[C@@H](O)[C@@H](O)[C@@H](O)CO)[C@@H](C)CC)[C@@H](C)CC [Decoy862]		Type [1]: Inactive (Decoy)
COc1ccccc1OCCNC[C@@H](O)CN(CCOc1ccccc1OC)C[C@H](O)COc1cccc2[nH]c3ccccc3c12 [Decoy707]	Inactive (Decoy)	
CC(C)C[C@H](NC(=O)/C=C/c1ccc(OP(=O)(O)O)cc1)C(=O)N1CCC[C@H]1C(=O)N[C@@H](CCC(N)=O)C(=O)NCc1ccccc1 [CHEMBL267246]		Type (known STAT3 active) [3]: Active
CC1=C(/C(O)=N/c2ccc(S(N)(=O)=O)cc2)[C@H](c2ccco2)C(C#N)=C(SCC(=O)Nc2cccc(C(F)(F)F)c2)N1 [Decoy409]	Inactive (Decoy)	
Cc1cc(C)nc(N/C(=N\C(=S)NCCCN2CCOCC2)Nc2ccc(Cn3cncn3)cc2)n1 [Decoy399]	Inactive (Decoy)	
CC(=O)N[C@@H](Cc1ccc(OP(=O)(O)O)cc1)C(=O)N[C@@H](CC(C)C)C(=O)N1CCC[C@H]1C(=O)N[C@@H](CCC(N)=O)C(=O)N[C@H](C(N)=O)[C@@H](C)O [CHEMBL382978] (Ac-[pY]LPQT-NH2)		Type (known STAT3 active): Active
CCCCCCCCCC(=O)O[C@H]1[C@@H](O[C@@]2(CO)O[C@@H](CO)[C@@H](O)[C@H]2O)O[C@@H](CO)[C@@H](OC(=O)C(C)C)[C@@H]1OC(=O)C(C)C [Decoy419]	Inactive (Decoy)	
O=C(O)CN(CC(=O)O)[C@@H](CCCCNC(=S)Nc1ccc(-c2c3ccc(=O)cc-3oc3cc(O)ccc23)c(C(=O)O)c1)C(=O)O [Decoy515]	Inactive (Decoy)	
COc1cc(C(=O)NNC(=S)NC(=O)COc2ccc(Br)cc2C)cc(OC)c1OC [Decoy856]		Type [1]: Inactive (Decoy)
CC(=O)O[C@@H]1[C@@H](O)[C@@H](O[C@@H](C/N=C/c2c(O)ccc3ccccc23)[C@@H](CO)O[C@H](O)C/N=C/c2c(O)ccc3ccccc23)O[C@@H](CO)[C@H]1O [Decoy885]		Type [1]: Inactive (Decoy)
CCCCn1nc(NC(=O)c2cc(OCC)c(OCC)c(OCC)c2)c2cc3cc(C)ccc3nc21 [Decoy415]	Inactive (Decoy)	
COc1ccc(CCN/C(=N/c2nc(C)cc(C)n2)NS(=O)(=O)c2ccc(Br)cc2)cc1OC [Decoy898]		Type [1]: Inactive (Decoy)
Cc1ccc(S(=O)(=O)NCc2ccco2)cc1C(=O)NNC(=O)c1nn(-c2ccccc2)cc1O [Decoy610]	Inactive (Decoy)	
CC(=O)N[C@H]1[C@H](O[C@H]2[C@H](O[C@H](C)C(=O)O)[C@@H](NC(C)=O)[C@@H](OC(C)=O)O[C@@H]2COC(C)=O)O[C@H](COC(C)=O)[C@@H](OC(C)=O)[C@@H]1OC(C)=O [Decoy458]	Inactive (Decoy)	
CCn1nc(C)c(CCN(C)c2ncc(C(=O)O)cc2NS(=O)(=O)c2ccc(C(C)=O)cc2)c1C [Decoy465]	Inactive (Decoy)	
CCOC(=O)c1c(C)oc(NC(=O)[C@@H](CC)n2c(N)nnc2SCC(=O)OC)c1C(=O)OCC [Decoy617]	Inactive (Decoy)	
Cc1cc(C(=O)Nc2ccc(S(=O)(=O)Nc3ncccn3)cc2)cc(S(=O)(=O)N(C)C)c1C [Decoy675]		Type (sheet 6QHD_actives_decoys, […]): Inactive (Decoy)
CC(=O)O[C@H]1[C@@H](O)[C@@H](O[C@@H](/C=N\c2cnc([N+](=O)[O-])s2)[C@@H](CO)O[C@H](O)/C=N/c2cnc([N+](=O)[O-])s2)O[C@@H](CO)[C@H]1O [Decoy909]		Type [1]: Inactive (Decoy)
CCN(CC)c1ccc(/C=N/Nc2nc(SCC(=O)n3nc(C)cc3C)n[nH]2)c(O)c1 [Decoy937]		Type [1]: Inactive (Decoy)
COc1cc(-c2c(-c3cc(Br)c(O)c(OC)c3)oc(/C=N/NC(=O)C[N+](C)(C)C)c2[N+](=O)[O-])cc(Br)c1[O-] [Decoy556]	Inactive (Decoy)	
CC(C)(CO[P@](=O)(O)O[P@](=O)(O)OC[C@H]1O[C@@H](n2cnc3c(N)ncnc32)[C@H](O)[C@@H]1OP(=O)(O)O)[C@@H](O)C(=O)NCCC(=O)NCCS [Decoy847]		Type [1]: Inactive (Decoy)
CC(C)C[C@H](NC(=O)[C@H](Cc1ccc(OP(=O)(O)O)cc1)NC(=O)CCc1ccccc1)C(=O)N1CCC[C@H]1C(=O)N[C@@H](CCC(N)=O)C(=O)N[C@H](C(N)=O)[C@@H](C)O [CHEMBL197844] (Hydrocinnamoyl-[pY]LPQT-NH2)		Type (known STAT3 active) [3]: Active
